Test results as given in US20130005660A1, “Plasma Activation of Biological Materials for Surface Modification” (ORTHOBOND, INC., priority 2011, published 2013).

Test: Stability of gentamicin in 0.25M HCl under autoclave conditions
Type: physicochemical

Question: Which stability of gentamicin does the source give for gentamicin here?
Answer: The stability of gentamicin was “No significant loss of gentamicin detection”.
